We go through 19 compounds from US20260035364A1, “BICYCLIC TETRAHYDROTHIAZEPINE DERIVATIVES” (Hoffmann-La Roche Inc., priority 2022, published 2026).

One test has as its target DGKzeta (Homo sapiens, UniProt Q13574). The experiment in a line: In vitro DGK inhibition assay (ADP-Glo, liposomes), DGKzeta. Type of test: biochemical. Set-up: hDGKzeta(1-928)-N-His; His (N); made in house; host or cells: Sf21 insect cells (baculovirus). As to conditions: 2 nM DGK ζ, 50 μM ATP, 125 uM DLG in liposomes, 1 hour reaction. Put shortly: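 DGKζ (2 nM) phosphorylated DLG presented in DLG/PS/PC liposomes (final DLG 125 μM) with 50 μM ATP for 1 hour. ADP formed was read by ADP-Glo luminescence. Compounds were tested as 11-point 1:3 dose responses in 2% final DMSO.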

Another test relates to primary human T-cells. The experiment in a line: T-cell proliferation assay (CellTiter-Glo). It is filed as cell-based. As to conditions: Homo sapiens, T-cell, 120 h, CD3 condition; for Emax: 5 days, 20 μM reference compound A1 = 100%, read-out: Emax proliferation (% activation); for EC50: proliferation after 5 days, CellTiter-Glo, read-out: Tcell Proliferation CD3 EC50. Put shortly:
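Expanded primary human T-cells (100k/well) on plates coated with CD3 antibody or PBS only, given a 5- or 6-point dose response (top 20 or 10 μM final, 3.333-fold steps, 0.2% DMSO). ATP measured by CellTiter-Glo 2.0 luminescence after 5 days. Normalized to DMSO and 20 μM reference A1 (100%); EC50 and Emax reported for CD3 conditions.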

DGKzeta, sequence (Q13574 whole entry): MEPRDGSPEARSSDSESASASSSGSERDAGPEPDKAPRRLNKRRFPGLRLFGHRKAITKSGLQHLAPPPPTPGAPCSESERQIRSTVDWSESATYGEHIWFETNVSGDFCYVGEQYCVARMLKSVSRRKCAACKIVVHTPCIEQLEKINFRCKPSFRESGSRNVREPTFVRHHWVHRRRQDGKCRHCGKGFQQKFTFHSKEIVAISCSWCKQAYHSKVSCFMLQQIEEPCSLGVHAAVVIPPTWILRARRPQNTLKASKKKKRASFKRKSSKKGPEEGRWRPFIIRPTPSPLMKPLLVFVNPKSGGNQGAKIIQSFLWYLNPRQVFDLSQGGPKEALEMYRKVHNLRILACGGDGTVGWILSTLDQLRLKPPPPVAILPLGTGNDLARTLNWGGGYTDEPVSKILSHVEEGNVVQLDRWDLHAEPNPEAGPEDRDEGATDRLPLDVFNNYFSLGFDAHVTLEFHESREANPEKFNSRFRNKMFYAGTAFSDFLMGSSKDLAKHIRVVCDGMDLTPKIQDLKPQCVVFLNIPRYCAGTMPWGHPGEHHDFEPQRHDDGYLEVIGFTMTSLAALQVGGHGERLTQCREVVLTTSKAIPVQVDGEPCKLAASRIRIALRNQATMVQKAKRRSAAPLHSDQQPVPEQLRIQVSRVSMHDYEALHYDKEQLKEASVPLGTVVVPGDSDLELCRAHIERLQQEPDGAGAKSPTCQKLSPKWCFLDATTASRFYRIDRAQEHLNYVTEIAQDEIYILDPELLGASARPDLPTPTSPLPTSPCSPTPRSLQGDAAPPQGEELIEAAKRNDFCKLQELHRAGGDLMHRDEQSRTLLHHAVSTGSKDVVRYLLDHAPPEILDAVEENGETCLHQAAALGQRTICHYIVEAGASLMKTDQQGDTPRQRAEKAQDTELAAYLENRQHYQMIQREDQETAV

As usually defined, the IC50 is the midpoint of a concentration-inhibition curve. Higher therefore signals weaker potency. `COc1ccc(-c2ccc(CN3C(=O)[C@@H](N)CS(=O)(=O)c4ccc(-c5noc(C(C)(C)S(C)(=O)=O)n5)cc43)cc2)cc1` [Example 63, (3R)-3-amino-5-[[4-(4-methoxyphenyl)phenyl]methyl]-7-[5-(1-methyl-1-methylsulfonyl-ethyl)-1,2,4-oxadiazol-3-yl]-1,1-dioxo-2,3-dihydro-1λ6,5-benzothiazepin-4-one] showed an IC50 on DGKzeta of 2330 nM. For the same compound, in the test on primary human T-cells, the Emax turned out to be 98% and the EC50 is 92 nM.
The compound `CC(C)(c1nnc(-c2ccc3c(c2)N(Cc2ccc(Oc4cccc(Cl)c4)cc2)C(=O)[C@@H](N)CS3(=O)=O)o1)S(C)(=O)=O` [Example 34, (3R)-3-amino-5-[[4-(3-chlorophenoxy)phenyl]methyl]-7-[5-(1-methyl-1-methylsulfonyl-ethyl)-1,3,4-oxadiazol-2-yl]-1,1-dioxo-2,3-dihydro-1λ6,5-benzothiazepin-4-one] showed an IC50 at DGKzeta of 1100 nM. In the test with primary human T-cells, the Emax turned out to be 127% and the EC50 worked out at 1270 nM.
In turn, `CC(C)(c1nnc(-c2cc3c(cc2F)S(=O)(=O)C[C@H](N)C(=O)N3Cc2ccc(Oc3ccccc3)cc2)o1)S(C)(=O)=O` [Example 27, (3R)-3-amino-8-fluoro-7-[5-(1-methyl-1-methylsulfonyl-ethyl)-1,3,4-oxadiazol-2-yl]-1,1-dioxo-5-[(4-phenoxyphenyl)methyl]-2,3-dihydro-1λ6,5-benzothiazepin-4-one] displayed an IC50 at DGKzeta of 657 nM. Further, in the test with primary human T-cells, the Emax was 136% and the EC50 stood at 863 nM.
`CC(C)(c1nnc(-c2ccc3c(c2)N(Cc2ccc(OCc4ccc(F)cc4)cc2)C(=O)[C@@H](N)CS3(=O)=O)o1)S(C)(=O)=O` [Example 12, (3R)-3-amino-5-[[4-[(4-fluorophenyl)methoxy]phenyl]methyl]-7-[5-(1-methyl-1-methylsulfonyl-ethyl)-1,3,4-oxadiazol-2-yl]-1,1-dioxo-2,3-dihydro-1λ6,5-benzothiazepin-4-one] yielded an IC50 against DGKzeta of 802 nM. Further, in the test on primary human T-cells, the Emax amounted to 151% and the EC50 stood at 590 nM.
The compound `CC(C)(c1nc(-c2cc3c(cc2F)S(=O)(=O)C[C@H](N)C(=O)N3Cc2ccc(Oc3ccccc3)nc2)no1)S(C)(=O)=O` [Example 48, (3R)-3-amino-8-fluoro-7-[5-(1-methyl-1l-methylsulfonyl-ethyl)-1,2,4-oxadiazol-3-yl]-1,1-dioxo-5-[(6-phenoxy-3-pyridyl)methyl]-2,3-dihydro-1 λ6,5-benzothiazepin-4-one] showed an IC50 on DGKzeta of 630 nM. Moreover, in the test on primary human T-cells, the Emax turned out to be 252% and the EC50 came to 296 nM.
For `CC(C)(c1nnc(-c2cc3c(cc2F)S(=O)(=O)C[C@H](N)C(=O)N3Cc2ccc(Cl)cc2)o1)S(C)(=O)=O` [Example 2, (3R)-3-amino-5-[(4-chlorophenyl)methyl]-8-fluoro-7-[5-(1-methyl-1-methylsulfonyl-ethyl)-1,3,4-oxadiazol-2-yl]-1,1-dioxo-2,3-dihydro-1λ6,5-benzothiazepin-4-one], the IC50 against DGKzeta came out at 1380 nM. In the test on primary human T-cells, the Emax came to 123% and the EC50 came out at 399 nM.
With `CC(C)(c1nnc(-c2ccc3c(c2)N(Cc2ccc(Oc4cccc(C(F)(F)F)c4)cc2)C(=O)[C@@H](N)CS3(=O)=O)o1)S(C)(=O)=O` [Example 38], the IC50 against DGKzeta worked out at 1280 nM. Further, in the test with primary human T-cells, the Emax came out at 130% and the EC50 stood at 623 nM.
On the same counts, the results for `CC(C)(c1nnc(-c2ccc3c(c2)N(Cc2ccc(Oc4cc(F)cc(C(F)(F)F)c4)cc2)C(=O)[C@@H](N)CS3(=O)=O)o1)S(C)(=O)=O` [Example 39] are 2630 nM, 108% and 1330 nM.
Compound `COc1cccc(Oc2ccc(CN3C(=O)[C@@H](N)CS(=O)(=O)c4ccc(-c5nnc(C(C)(C)S(C)(=O)=O)o5)cc43)cc2)c1` [Example 42] registered an IC50 on DGKzeta of 413 nM. For the same compound, in the test with primary human T-cells, the Emax is 205% and the EC50 was 674 nM.
For the compound `CC(C)(c1nc(-c2cc3c(cc2F)S(=O)(=O)C[C@H](N)C(=O)N3Cc2ccc(OCc3nc(C(F)(F)F)no3)cc2)no1)S(C)(=O)=O` [Example 59, (3R)-3-amino-8-fluoro-7-[5-(1-methyl-1-methylsulfonyl-ethyl)-1,2,4-oxadiazol-3-yl]-1,1-dioxo-5-[[4-[[3-(trifluoromethyl)-1,2,4-oxadiazol-5-yl]methoxy]phenyl]methyl]-2,3-dihydro-1λ6,5-benzothiazepin-4-one], the IC50 against DGKzeta turned out to be 310 nM. In the test with primary human T-cells, the Emax was 185% and the EC50 was 1120 nM.
With `CN(C)S(=O)(=O)C(C)(C)c1nnc(-c2ccc3c(c2)N(Cc2ccc(-c4ccc(C(F)(F)F)cc4)cc2)C(=O)[C@@H](N)CS3(=O)=O)o1` [Example 65, 2-[5-[(3R)-3-amino-1,1,4-trioxo-5-[[4-[4-(trifluoromethyl)phenyl]phenyl]methyl]-2,3-dihydro-1λ6,5-benzothiazepin-7-yl]-1,3,4-oxadiazol-2-yl]-N,N-dimethyl-propane-2-sulfonamide], at DGKzeta, the IC50 was determined as 8370 nM. Further, in the test on primary human T-cells, the Emax amounted to 155% and the EC50 was found to be 2620 nM.
As to `CC(C)(c1nnc(-c2ccc3c(c2)N(Cc2ccc(OC(F)(F)C(F)F)cc2)C(=O)[C@@H](N)CS3(=O)=O)o1)S(C)(=O)=O` [Example 3, (3R)-3-amino-7-[5-(1-methyl-1-methylsulfonyl-ethyl)-1,3,4-oxadiazol-2-yl]-1,1-dioxo-5-[[4-(1,1,2,2-tetrafluoroethoxy)phenyl]methyl]-2,3-dihydro-126,5-benzothiazepin-4-one], the IC50 at DGKzeta came to 978 nM. For the same compound, in the test with primary human T-cells, the Emax is 66% and the EC50 was 5070 nM.
`CC(C)(c1nnc(-c2ccc3c(c2)N(Cc2ccc(Oc4ccccc4)cc2)C(=O)[C@@H](N)CS3(=O)=O)o1)S(C)(=O)=O` [Example 5, (3R)-3-amino-7-[5-(1-methyl-1-methylsulfonyl-ethyl)-1,3,4-oxadiazol-2-yl]-1,1-dioxo-5-[(4-phenoxyphenyl)methyl]-2,3-dihydro-1λ6,5-benzothiazepin-4-one] gave an IC50 against DGKzeta of 701 nM. In the test with primary human T-cells, the Emax is 120% and the EC50 came out at 942 nM.
Compound `CC(C)(c1nc(-c2cc3c(cc2F)S(=O)(=O)C[C@H](N)C(=O)N3Cc2ccc(-c3noc(C4CC4)n3)cc2)no1)S(C)(=O)=O` [Example 45, (3R)-3-amino-5-[[4-(5-cyclopropyl-1,2,4-oxadiazol-3-yl)phenyl]methyl]-8-fluoro-7-[5-(1-methyl-1-methylsulfonyl-ethyl)-1,2,4-oxadiazol-3-yl]-1,1-dioxo-2,3-dihydro-1λ6,5-benzothiazepin-4-one] yielded an IC50 at DGKzeta of 98 nM. Further, in the test on primary human T-cells, the Emax was 260% and the EC50 amounted to 235 nM.
Regarding `CS(=O)(=O)Cn1nnc(-c2cc3c(cc2F)S(=O)(=O)C[C@H](N)C(=O)N3Cc2ccc(Oc3ccccc3)cc2)n1` [Example 54, (3R)-3-amino-8-fluoro-7-[2-(methylsulfonylmethyl)tetrazol-5-yl]-1,1-dioxo-5-[(4-phenoxyphenyl)methyl]-2,3-dihydro-1λ6,5-benzothiazepin-4-one], the half-maximal inhibitory concentration (IC50) at DGKzeta amounted to 603 nM. Besides, in the test with primary human T-cells, the Emax worked out at 310% and the EC50 is 1540 nM.
Consider `CC(C)(c1nnc(-c2cc3c(cc2F)S(=O)(=O)C[C@H](N)C(=O)N3Cc2ccc(OC(F)(F)C(F)F)cc2)o1)S(C)(=O)=O` [Example 26, (3R)-3-amino-8-fluoro-7-[5-(1-methyl-1-methylsulfonyl-ethyl)-1,3,4-oxadiazol-2-yl]-1,1-dioxo-5-[[4-(1,1,2,2-tetrafluoroethoxy)phenyl]methyl]-2,3-dihydro-1λ6,5-benzothiazepin-4-one], for which the IC50 against DGKzeta turned out to be 370 nM. Besides, in the test on primary human T-cells, the Emax stood at 122% and the EC50 was found to be 573 nM.
The compound `COc1ccc(-c2ccc(CN3C(=O)[C@@H](N)CS(=O)(=O)c4cc(F)c(-c5nnc(C(C)(C)S(C)(=O)=O)o5)cc43)cc2)cc1` [Example 29, (3R)-3-amino-8-fluoro-5-[[4-(4-methoxyphenyl)phenyl]methyl]-7-[5-(1-methyl-1-methylsulfonyl-ethyl)-1,3,4-oxadiazol-2-yl]-1,1-dioxo-2,3-dihydro-1λ6,5-benzothiazepin-4-one] returned an IC50 on DGKzeta of 251 nM. Also, in the test on primary human T-cells, the Emax was determined as 108% and the EC50 amounted to 55 nM.
With `CC(C)(c1nnc(-c2ccc3c(c2)N(Cc2ccc(-c4ccc(C(F)(F)F)cc4)cc2)C(=O)[C@@H](N)CS3(=O)=O)o1)S(C)(=O)=O` [Example 56, (3R)-3-amino-7-[5-(1-methyl-1-methylsulfonyl-ethyl)-1,3,4-oxadiazol-2-yl]-1,1-dioxo-5-[[4-[4-(trifluoromethyl)phenyl]phenyl]methyl]-2,3-dihydro-1λ6,5-benzothiazepin-4-one], the IC50 against DGKzeta came out at 8880 nM. Besides, in the test with primary human T-cells, the Emax was found to be 137% and the EC50 was found to be 636 nM.
For `CS(=O)(=O)Cn1nnnc1-c1cc2c(cc1F)S(=O)(=O)C[C@H](N)C(=O)N2Cc1ccc(Oc2ccccc2)cc1` [Example 55, (3R)-3-amino-8-fluoro-7-[1-(methylsulfonyl-methyl)tetrazol-5-yl]-1,1-dioxo-5-[(4-phenoxyphenyl)methyl]-2,3-dihydro-1λ6,5-benzothiazepin-4-one], the IC50 on DGKzeta was determined as 6640 nM. Moreover, in the test with primary human T-cells, the Emax amounted to 310% and the EC50 was found to be 1150 nM.
